“Also recorded” adds a separate entry of the source. Starred links: 1 amine or outer side, 2 acyl side, 3 side chain; linkers in the order of their positions; H or OH if unused. Positions of bridges follow the written chain, without caps; N, C: chain ends. Non-standard residues stand in square brackets, D forms with d. Residues, ends and D or L forms follow the SMILES beside them. X1 = CC(=O)NC(C(=O)OC(C(C)C)C(N[*:1])C(=O)[*:2])C(O)C(C)C; PhLac = O=C(O)[CH](O)Cc1ccccc1; NMeT = CN[CH](C(=O)O)[CH](C)O; NMeA = CN[CH](C)C(=O)O; NMeDha = C=C(NC)C(=O)O
Key:
mice = assay: Acute itch behaviour after injection (scratching bouts); type: in vivo, mouse; conditions: for itch elicited in Cluster KO animals: Cluster KO mice; for scratching / itch elicited by injection: WT mice; for itch responses in WT versus Cluster KO animals: injection at nape or cheek
MRGPRX4 [1] = target: T1, MRGPRX4 (Homo sapiens, UniProt Q96LA9); assay: MrgprX4 inverse agonist assay (HTRF IP-One inositol phosphate); type: cell-based; design: expressed in transfected cells; conditions: HEK293 cells stably expressing recombinant human MrgprX4, final assay concentration typically 10 μM
T1 sequence (Q96LA9 whole entry): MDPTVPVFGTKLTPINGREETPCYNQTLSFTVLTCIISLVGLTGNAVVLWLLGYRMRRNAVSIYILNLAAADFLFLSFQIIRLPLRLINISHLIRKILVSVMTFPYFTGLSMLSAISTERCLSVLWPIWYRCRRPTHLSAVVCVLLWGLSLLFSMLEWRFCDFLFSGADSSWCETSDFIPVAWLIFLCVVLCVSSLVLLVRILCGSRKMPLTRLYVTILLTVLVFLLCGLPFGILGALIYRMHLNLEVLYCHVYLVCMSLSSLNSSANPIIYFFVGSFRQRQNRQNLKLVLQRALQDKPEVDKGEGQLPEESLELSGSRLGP
Procedure: (§1) Intracellular inositol phosphate levels were determined using a 384-well homogenous time-resolved fluorescence assay (HTRF IP-One®, CisBio International, Bagnols/Ceze, France, Cat #62IPAPEJ) as described by the manufacturer's one-step protocol. Briefly, HEK293 cells stably expressing recombinant human MrgprX4 were harvested and suspended in phenol-red free OptiMEM (ThermoFisher) and plated into 384-well assay plates (Perkin Elmer, Proxiplate-Plus® Cat #6008280) at 15,000 cells/well in a volume of 10 μL/well. These cell plates were then incubated overnight at 37° C. in a humidified CO2 incubator. Test compounds were dissolved in DMSO and were further diluted in Assay Buffer (Tris.HCl 40 mM, NaCl 300 mM, LiCl 350 mM, pH 8) and added to the cells (2 μL addition, final assay concentration typically 10 μM). In this configuration, the assay can detect agonists and inverse agonists. For detection of antagonists, test compound addition was followed by addition of bilirubin (2 μL addition, final assay concentration 100 μM). Regardless of the assay format (agonist/inverse agonist vs. antagonist) plates were then incubated for 1 h, at 37° C., followed by 30 minutes at room temperature. Lysis/detection reagents (6 uL/well) were then added and plates incubated for 1 h at room temperature before reading on an HTRF compatible reader such as a Perkin Elmer EnVision® or BMG Pherastar®.

MRGPRX4 [2] = target: T1, MRGPRX4; assay: MrgprX4 antagonist assay vs bilirubin (HTRF IP-One inositol phosphate); type: cell-based; design: expressed in transfected cells; conditions: blockade of bilirubin (100 μM) induced signal; test compound typically 10 μM
Procedure: as §1

MRGPRX4 [3] = target: T1, MRGPRX4; assay: Fura 2-AM calcium imaging, EC50 determinations, MRGPRX4 HEK293 cells; type: cell-based; design: expressed in transfected cells; whole cells or crude membrane fraction; conditions: 10 μM pre-incubated 30 minutes; 50 μM bilirubin
Procedure: (§2) Cells were imaged in calcium imaging buffer (CIB; 10 mM HEPES, 1.2 mM NaHCO3, 130 mM NaCl, 3 mM KCl, 2.5 mM CaCl2, 0.6 mM MgCl2, 20 mM glucose, and 20 mM sucrose at pH 7.4 and 290-300 mOsm). To monitor changes in intracellular [Ca^2+] ([Ca^2+]i), cells were loaded with either Fura 2-AM (HEK293 cells) or Fluo 4-AM (DRG neurons and mast cells) for 30 min in the dark at 37° C. in CIB just prior to imaging. With Fura 2-AM, emission at 510 nm was monitored from excitation at both 340 nm and 380 nm. With Fluo 4-AM, emission at 520 nm was monitored from excitation at 488 nm. Cells were identified as responding if the intracellular [Ca^2+] rose by either 50% compared to baseline or 50% compared to the [Ca^2+]i change assayed during addition of 50 mM KCl (neurons only). Damaged, detached, high-baseline, and motion-activated cells were excluded from analysis.
(§3) In initial screens, HEK293 cells stably expressing the murine G-protein alpha-subunit Gα15, a unique Gα protein that non-selectively couples a large variety of GPCRs to phospholipase C^30, were plated on poly-D-lysine-coated coverslips and transiently transfected with constructs encoding the MRGRPR of interest. 12-24 h later, cells were loaded with the Fura 2-AM. Unless otherwise specified, compounds were perfused into the imaging chamber for approximately thirty seconds after a baseline period was established. Response was then monitored at 5 s intervals for an additional 60 s.
HEK293 cells stably expressing either MRGPRA1, MRGPRX4, and MRGRPC11 were seeded in poly-D-lysine-coated 96-well plates at 10,000 cells/well. Cells were loaded with Fura 2-AM, washed twice, and maintained in CIB. Haem metabolites were freshly dissolved in DMSO in dim light and then diluted into a buffer comprised of 20 mM Tris and 150 mM NaCl at pH 8.8. Potential changes in pH were evaluated prior to each experiment. EC50 values were determined from dose-responses performed in triplicate, repeated 2-4 times. […]

MrgprA1 = target: T2, MrgprA1 (Mus musculus, UniProt Q91WW5); assay: Fura 2-AM calcium imaging, EC50 and IC50 determinations, MRGPRA1 HEK293 cells; type: cell-based; conditions: 10 μM pre-incubated 30 minutes; 50 μM bilirubin
T2 construct: expressed in transfected cells; whole cells or crude membrane fraction
T2 sequence (Q91WW5 1-304): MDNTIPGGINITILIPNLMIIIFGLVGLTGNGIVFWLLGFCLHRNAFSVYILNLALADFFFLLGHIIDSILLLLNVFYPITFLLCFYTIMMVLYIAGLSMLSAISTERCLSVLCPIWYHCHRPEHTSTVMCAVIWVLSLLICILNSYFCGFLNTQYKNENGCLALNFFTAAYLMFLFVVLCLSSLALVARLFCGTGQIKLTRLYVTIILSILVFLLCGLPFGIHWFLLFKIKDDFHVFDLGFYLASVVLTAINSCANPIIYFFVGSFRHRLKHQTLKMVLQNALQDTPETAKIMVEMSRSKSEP
Procedure: as §2, §3
HEK293 cells stably expressing either MRGPRA1, MRGPRX4, and MRGRPC11 were seeded in poly-D-lysine-coated 96-well plates at 10,000 cells/well. Cells were loaded with Fura 2-AM, washed twice, and maintained in CIB. Haem metabolites were freshly dissolved in DMSO in dim light and then diluted into a buffer comprised of 20 mM Tris and 150 mM NaCl at pH 8.8. Potential changes in pH were evaluated prior to each experiment. EC50 values were determined from dose-responses performed in triplicate, repeated 2-4 times. To determine potential antagonism by QWF against bilirubin, cells were treated with varying doses of QWF for 1 min in CIB prior to application of agonist.

129S1/SvImJ mice = assay: SJS/TEN mouse model (daily oral gavage of causative drug); type: in vivo; conditions: mouse, in vivo
Procedure: Eight-to-ten week old male mice were orally gavaged with either causative drugs (LTG, allopurinol, oxcarbazepine) suspended in saline or saline once daily. The dosage was based on milligrams per kilogram of animal's body weight as indicated (for example, LTG 50 mg kg^−1 body weight). Skin, eyes, and mucosa, survival, body weight, physical and gross appearances (particularly on the eyes, mucosa and skins) were monitored every day.
The animals were deeply anesthetized with pentobarbital and transcardially perfused with 20 ml 0.1 M cold PBS (pH 7.4) followed with 25 ml of cold 4% paraformaldehyde (PFA). Paw skin, eyelid, spleen, lymph nodes were dissected out. postfixed in 4% PFA for more than two hours, and cryoprotected in a 20% followed by 30% sucrose solution for 24 hours each at 4° C. Tissue samples were embedded in the optimal cutting temperature (OCT) and frozen before being serially cut into 20 μm sections and placed onto slides. Hematoxylin and eosin (H&E) staining was performed using standard procedures according to the manufacturer's instruction VITROVIEW™ H&E Stain Kit). To quantify amount of apoptotic cells, terminal deoxynucleotidyl transferase dUTP nick end labeling (TUNEL) assay, a method for detecting DNA fragmentation that results from apoptotic cells by labeling the terminal end of nucleic acids, was performed by following the protocol of Apo-BrdU DNA Fragmentation Assay Kit (Biovision). To estimate the total cell number in tissue, all nuclei were stained with propidium iodide. Digital photographs were captured under confocal fluorescent microscopy at x200 magnification (Zeiss LSM 700). The number of TUNEL-positive nuclei were counted and reported as a percentage over the number of total nuclei observed in the skin's epidermis layer.

stercobilin
itch elicited in Cluster KO animals (mice): absent
scratching / itch elicited by injection (mice): elicited itch; also recorded: able to stimulate scratching behavior

CCC1=C(C)C(Cc2[nH]c(Cc3[nH]c(CC4NC(=O)C(C)=C4CC)c(C)c3CCC(=O)O)c(CCC(=O)O)c2C)NC1=O (stereo not shown) [urobilinogen]
scratching / itch elicited by injection (mice): able to stimulate scratching behavior

Cc1nc(-c2ccnn2Cc2ccc(Cl)cc2)[nH]c1-c1ccccc1 [compound 2]
Inverse Agonist Activity (MRGPRX4 [1]): ++++ (an activity of at least 3 standard deviations below baseline)
Antagonist Activity (MRGPRX4 [2]): ++++ (a blockade of bilirubin induced signal of at least 85%)

C=C1C(=O)NC(C)C(=O)N(C)C(C)C(=O)NC(C(OC(=O)C(NC(C)=O)C(O)C(C)C)C(C)C)C(=O)N(C)C(C(C)OC)C(=O)OC(C)C(NC(C)=O)C(=O)OC(Cc2ccccc2)C(=O)N1C (stereo not shown) [YM-254890] (Ac-T[PhLac][NMeDha]A[NMeA][X1][NMeT](Me); ester 1-C; configuration not given here)
effect on bilirubin-induced calcium responses, MRGPRX4 (MRGPRX4 [3]): inhibited
effect on bilirubin-induced calcium responses, MRGPRA1 (MrgprA1): abolished

Nc1nc2ccccc2n1CCOc1ccccc1Cl [compound 4]
Inverse Agonist Activity (MRGPRX4 [1]): +++ (an activity of from 2 standard deviations to less than 3 standard deviations below baseline)
Antagonist Activity (MRGPRX4 [2]): +++ (a blockade of bilirubin induced signal of from 70% to less than 85%)

Oc1ncnc2[nH]ncc12 [allopurinol]
eye manifestation (129S1/SvImJ mice): can also induce eye manifestation

C=CC1=C(C)/C(=C/C2=NC(=C\c3[nH]c(/C=C4\NC(=O)C(C)=C4C=C)c(C)c3CCC(=O)O)/C(CCC(=O)O)=C2C)NC1=O [biliverdin]
scratching / itch elicited by injection (mice): did not induce scratching

O=C(NCc1cc2ccccc2[nH]1)c1cc(-c2ccccn2)nc2ccc(Br)cc12 [compound 3]
Inverse Agonist Activity (MRGPRX4 [1]): +++ (an activity of from 2 standard deviations to less than 3 standard deviations below baseline)
Antagonist Activity (MRGPRX4 [2]): ++++ (a blockade of bilirubin induced signal of at least 85%)

CN1CC[C@]23c4c5ccc(O)c4O[C@H]2[C@@H](O)C=C[C@H]3[C@H]1C5 [morphine]
itch responses in WT versus Cluster KO animals (mice): comparable itch responses

O=C(O)COCCN1CCN(C(c2ccccc2)c2ccc(Cl)cc2)CC1 (stereo not shown) [cetirizine]
effect on bilirubin-induced scratching (mice; 30 mg/kg, i.p., thirty minutes prior to bilirubin): failed to temper scratching behavior

C[C@@H](NC(=O)[C@@H](N)Cc1ccc(O)cc1)C(=O)NCC(=O)N(C)[C@@H](Cc1ccccc1)C(=O)NCCO [DAMGO]
itch responses in WT versus Cluster KO animals (mice): comparable itch responses

Cc1c(C(=O)NCc2ccccc2C(F)(F)F)ncn1Cc1ccc(Cl)cc1 [compound 1]
Inverse Agonist Activity (MRGPRX4 [1]): ++++ (an activity of at least 3 standard deviations below baseline)
Antagonist Activity (MRGPRX4 [2]): ++++ (a blockade of bilirubin induced signal of at least 85%)

lysophosphatidic acid [LPA]
itch responses in WT versus Cluster KO animals (mice): comparable itch responses

FMRF: an MRGPRA1 agonist
scratching / itch elicited by injection (mice): caused itch

C=CC1=C(C)c2cc3[n-]c(cc4[n-]c(cc5nc(cc1n2)C(C)=C5C=C)c(C)c4CCC(=O)O)c(CCC(=O)O)c3C.O.[Fe+2] [hematin]
itch elicited in Cluster KO animals (mice): absent
scratching / itch elicited by injection (mice): elicited itch
